Results taken from ChEMBL document CHEMBL3399976, “Dual inhibition of allosteric mitogen-activated protein kinase (MEK) and phosphatidylinositol 3-kinase (PI3K) oncogenic targets with a bifunctional inhibitor” (Bioorg Med Chem, 2015).
pIC50: −log10 of the molar value. Blank lines part the entries; values can stand above or below the molecule they belong to. Activity calls are given as the source filed them. The rule behind the calls is not given here.

Legend:
[1] = tested on: A549; assay: Cytotoxicity against human A549 cells at 10 to 25 uM after 24 hrs by Alamar Blue assay; assay type: functional
[2] = biological target: Epidermal growth factor receptor (Homo sapiens, UniProt P00533); assay: Inhibition of EGFR (unknown origin)
Sequence of Epidermal growth factor receptor (P00533 whole entry): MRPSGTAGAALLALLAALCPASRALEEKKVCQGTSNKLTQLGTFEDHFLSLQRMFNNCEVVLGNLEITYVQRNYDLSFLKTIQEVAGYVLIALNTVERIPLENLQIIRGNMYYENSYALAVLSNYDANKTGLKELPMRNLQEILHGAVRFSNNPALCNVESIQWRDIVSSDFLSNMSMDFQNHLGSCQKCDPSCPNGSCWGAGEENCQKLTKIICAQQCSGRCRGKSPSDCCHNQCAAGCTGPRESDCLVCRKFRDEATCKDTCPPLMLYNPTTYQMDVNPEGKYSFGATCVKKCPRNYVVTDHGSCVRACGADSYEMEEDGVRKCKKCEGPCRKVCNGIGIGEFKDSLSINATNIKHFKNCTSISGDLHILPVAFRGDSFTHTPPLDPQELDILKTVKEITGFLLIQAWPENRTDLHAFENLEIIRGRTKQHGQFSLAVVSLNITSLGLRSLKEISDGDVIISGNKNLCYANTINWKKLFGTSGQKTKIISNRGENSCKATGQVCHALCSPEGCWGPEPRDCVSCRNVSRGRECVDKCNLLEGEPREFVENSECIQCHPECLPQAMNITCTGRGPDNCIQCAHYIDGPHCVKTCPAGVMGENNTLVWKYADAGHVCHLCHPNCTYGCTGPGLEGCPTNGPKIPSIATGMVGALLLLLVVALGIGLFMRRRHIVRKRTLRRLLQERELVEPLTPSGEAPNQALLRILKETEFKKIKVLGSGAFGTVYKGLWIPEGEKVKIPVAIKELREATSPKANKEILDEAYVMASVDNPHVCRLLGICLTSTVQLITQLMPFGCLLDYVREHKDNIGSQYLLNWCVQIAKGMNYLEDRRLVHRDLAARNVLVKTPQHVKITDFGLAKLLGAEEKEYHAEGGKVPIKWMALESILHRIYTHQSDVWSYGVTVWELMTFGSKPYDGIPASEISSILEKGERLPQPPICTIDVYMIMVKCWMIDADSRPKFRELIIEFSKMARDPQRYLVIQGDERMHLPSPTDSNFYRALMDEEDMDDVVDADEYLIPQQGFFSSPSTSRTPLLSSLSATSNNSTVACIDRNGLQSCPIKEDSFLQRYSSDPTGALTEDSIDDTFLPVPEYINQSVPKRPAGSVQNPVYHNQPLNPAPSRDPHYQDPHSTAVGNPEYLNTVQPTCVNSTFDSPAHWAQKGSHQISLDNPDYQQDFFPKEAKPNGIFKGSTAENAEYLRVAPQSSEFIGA

[3] = tested on: A549; assay: Inhibition of PI3K in human A549 cells assessed as reduction in pAkt level after 1 hr by Western blotting analysis; assay type: cell-based
[4] = biological target: T1, Dual specificity mitogen-activated protein kinase kinase 1 (Homo sapiens, UniProt Q02750); assay: Inhibition of MEK1 in human PANC1 cells assessed as reduction in pErk1/2 level at 25 uM after 1 hr by Western blotting analysis; assay type: cell-based; conditions: PANC-1
T1 sequence (Q02750 whole entry): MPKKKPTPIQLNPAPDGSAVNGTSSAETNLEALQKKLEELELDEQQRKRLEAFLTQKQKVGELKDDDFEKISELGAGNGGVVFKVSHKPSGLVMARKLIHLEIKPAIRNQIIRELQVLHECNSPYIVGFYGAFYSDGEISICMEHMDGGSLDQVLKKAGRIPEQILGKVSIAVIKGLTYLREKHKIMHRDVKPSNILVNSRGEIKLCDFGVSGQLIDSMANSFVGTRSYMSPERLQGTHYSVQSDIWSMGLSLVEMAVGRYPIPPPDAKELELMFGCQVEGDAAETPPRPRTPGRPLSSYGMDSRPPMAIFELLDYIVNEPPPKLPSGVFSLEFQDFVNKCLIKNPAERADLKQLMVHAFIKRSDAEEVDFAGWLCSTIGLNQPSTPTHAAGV

[5] = Cytotoxicity against human PANC1 cells at 10 to 25 uM after 24 hrs by Alamar Blue assay; assay type: functional, PANC-1
[6] = species on record: Mus musculus; assay: Inhibition of PI3K in mouse lung fibroblast assessed as reduction in pAkt level after 1 hr by Western blotting analysis
[7] = species on record: Mus musculus; assay: Inhibition of PI3K in mouse lung fibroblast assessed as reduction in pAkt level at 25 uM after 1 hr by Western blotting analysis
[8] = biological target: T1, Dual specificity mitogen-activated protein kinase kinase 1; assay: Inhibition of MEK1 in human PANC1 cells assessed as reduction in pErk1/2 level after 1 hr by Western blotting analysis; assay type: cell-based; conditions: PANC-1
[9] = Inhibition of ERK (unknown origin); design: species or system Homo sapiens
[10] = biological target: T1, Dual specificity mitogen-activated protein kinase kinase 1; assay: Inhibition of MEK1 in human A549 cells assessed as reduction in pErk1/2 level after 1 hr by Western blotting analysis; assay type: cell-based
[11] = tested on: A549; assay: Inhibition of PI3K in human A549 cells assessed as reduction in pAkt level at 25 uM after 1 hr by Western blotting analysis; assay type: cell-based
[12] = biological target: Aurora kinase B (Homo sapiens, UniProt Q96GD4); assay: Inhibition of AurB (unknown origin)
Sequence of Aurora kinase B (Q96GD4 whole entry): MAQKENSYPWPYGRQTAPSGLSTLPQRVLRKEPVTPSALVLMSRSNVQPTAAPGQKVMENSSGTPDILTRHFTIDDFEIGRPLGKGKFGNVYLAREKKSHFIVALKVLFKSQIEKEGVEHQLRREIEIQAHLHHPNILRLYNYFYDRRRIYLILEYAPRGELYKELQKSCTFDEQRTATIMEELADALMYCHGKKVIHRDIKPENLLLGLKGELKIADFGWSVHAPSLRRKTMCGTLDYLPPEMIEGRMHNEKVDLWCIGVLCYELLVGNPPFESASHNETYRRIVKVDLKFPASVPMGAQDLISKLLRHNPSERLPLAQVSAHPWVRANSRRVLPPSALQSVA

[13] = biological target: Dual specificity mitogen-activated protein kinase kinase 1 (Mus musculus) (UniProt P31938); assay: Inhibition of MEK1 in mouse lung fibroblast assessed as reduction in pErk1/2 level after 1 hr by Western blotting analysis
Sequence of Dual specificity mitogen-activated protein kinase kinase 1 (Mus musculus) (P31938 whole entry): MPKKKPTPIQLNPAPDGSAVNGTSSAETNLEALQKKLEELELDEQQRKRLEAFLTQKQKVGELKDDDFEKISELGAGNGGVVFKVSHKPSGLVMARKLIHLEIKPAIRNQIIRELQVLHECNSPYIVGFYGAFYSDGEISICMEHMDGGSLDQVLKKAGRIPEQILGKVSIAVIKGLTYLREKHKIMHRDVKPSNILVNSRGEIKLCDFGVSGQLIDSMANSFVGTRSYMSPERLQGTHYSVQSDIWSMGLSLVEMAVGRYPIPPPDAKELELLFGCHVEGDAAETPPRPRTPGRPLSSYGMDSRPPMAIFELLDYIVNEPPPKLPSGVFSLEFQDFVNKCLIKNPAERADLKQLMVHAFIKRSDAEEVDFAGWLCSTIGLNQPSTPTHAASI

[14] = tested on: PANC-1; assay: Inhibition of PI3K in human PANC1 cells assessed as reduction in pAkt level after 1 hr by Western blotting analysis; assay type: cell-based
[15] = Inhibition of PI3K (unknown origin) by TR-FRET assay; design: species or system Homo sapiens
[16] = biological target: Protein kinase C alpha type (Homo sapiens, UniProt P17252); assay: Inhibition of PKC-alpha (unknown origin)
[17] = tested on: PANC-1; assay: Inhibition of PI3K in human PANC1 cells assessed as reduction in pAkt level at 25 uM after 1 hr by Western blotting analysis; assay type: cell-based
[18] = Cytotoxicity against mouse lung fibroblast at 10 to 25 uM after 24 hrs by Alamar Blue assay; assay type: cell-based
[19] = biological target: T1, Dual specificity mitogen-activated protein kinase kinase 1; assay: Inhibition of MEK1 in human A549 cells assessed as reduction in pErk1/2 level at 25 uM after 1 hr by Western blotting analysis; assay type: cell-based
[20] = biological target: Dual specificity mitogen-activated protein kinase kinase 1 (Mus musculus) (UniProt P31938); assay: Inhibition of MEK1 in mouse lung fibroblast assessed as reduction in pErk1/2 level at 25 uM after 1 hr by Western blotting analysis
[21] = tested on: PANC-1; assay: Inhibition of PI3K in human PANC1 cells assessed as reduction in pAkt level at 10 uM after 1 hr by Western blotting analysis; assay type: cell-based
[22] = tested on: A549; assay: Inhibition of PI3K in human A549 cells assessed as reduction in pAkt level at 10 uM after 1 hr by Western blotting analysis; assay type: cell-based
[23] = biological target: Dual specificity mitogen-activated protein kinase kinase 1 (Mus musculus) (UniProt P31938); assay: Inhibition of MEK1 in mouse lung fibroblast assessed as reduction in pErk1/2 level at 10 uM after 1 hr by Western blotting analysis
[24] = species on record: Mus musculus; assay: Inhibition of PI3K in mouse lung fibroblast assessed as reduction in pAkt level at 10 uM after 1 hr by Western blotting analysis

Structure (SMILES): Cc1c(Cc2cccc(N(C)S(=O)(=O)CCCNCCCCCC(=O)N3CCN(c4nc(N5CCOCC5)nc(-n5c(C(F)F)nc6ccccc65)n4)CC3)c2)c(=O)oc2cc(OC(=O)N(C)C)ccc12
Activity [1]: 50%
pIC50 [2]: < 5.00
inhibition [3]: Dose-dependent effect
inhibition [4]: Active
Activity [5]: 50%
inhibition [6]: Dose-dependent effect
inhibition [7]: Active
inhibition [8]: Dose-dependent effect
pIC50 [9]: < 5.00
inhibition [10]: Dose-dependent effect
inhibition [11]: Active
pIC50 [12]: < 5.00
inhibition [13]: Dose-dependent effect
inhibition [14]: Dose-dependent effect
pIC50 [15]: 6.76
pIC50 [16]: < 5.00
inhibition [17]: Active
Activity [18]: Non-toxic
inhibition [19]: Active
inhibition [20]: Active

inhibition [23]: Active
inhibition [24]: inactive
Structure (SMILES): O=C(NOC[C@H](O)CO)c1ccc(F)c(F)c1Nc1ccc(I)cc1F
inhibition [21]: inactive
inhibition [22]: inactive

pIC50 [15]: > 7.00
Structure (SMILES): NCCCCCC(=O)N1CCN(c2nc(N3CCOCC3)nc(-n3c(C(F)F)nc4ccccc43)n2)CC1

inhibition [23]: inactive
inhibition [24]: Active
Structure (SMILES): FC(F)c1nc2ccccc2n1-c1nc(N2CCOCC2)nc(N2CCOCC2)n1
inhibition [21]: Active
inhibition [22]: Active

inhibition [23]: Active
inhibition [24]: inactive
Structure (SMILES): CNS(=O)(=O)Nc1nccc(Cc2c(C)c3ccc(Oc4ncccn4)cc3oc2=O)c1F
inhibition [21]: inactive
inhibition [22]: inactive

pIC50 [15]: < 6.00
Structure (SMILES): O=C(CCCCC[N+](=O)[O-])N1CCN(c2nc(N3CCOCC3)nc(-n3c(C(F)F)nc4ccccc43)n2)CC1
